Measurements published in the NIST ThermoML archive (doi:10.1021/acs.jced.8b01078).
± gives the expanded uncertainty stated by the source.

Conditions: Liquid, Closed cell (Static) method

O [water]
vapor or sublimation pressure (313.16 K): 7.46 ± 2.5 kPa | vapor or sublimation pressure (323.16 K): 12.54 ± 2.6 kPa | vapor or sublimation pressure (333.16 K): 20.24 ± 2.8 kPa | vapor or sublimation pressure (343.16 K): 31.54 ± 3.2 kPa | vapor or sublimation pressure (353.16 K): 48.25 ± 3.8 kPa | vapor or sublimation pressure (363.16 K): 70.49 ± 4.7 kPa | vapor or sublimation pressure (373.16 K): 101.98 ± 5.3 kPa
